Laboratory results: US20140107344A1, “ZINC SALT OF ISOTHIAZOLONE COMPOUND, METHOD FOR REDUCING IRRITATION CAUSED BY ISOTHIAZOLONE COMPOUND, ANTIBACTERIAL AND ANTIFUNGAL METHOD USING ZINC SALT OF ISOTHIAZOLONE COMPOUND, AND ANTIBACTERIAL AND ANTIFUNGAL COMPOSITION” (Nippon Soda Co., Ltd., priority 2007, published 2014)
≈ marks a conversion by molar mass, not a printed value. Where “and” joins values, the source holds several entries; their conditions need not be identical. Identical values can stand only once.

Experiments:
Thermal stability test = format: physicochemical
Method: A test was carried out on the thermal stability of the BIT/Zn salt obtained in Example 1 and of BIT. As a result, BIT broke down at 300° C. or less, whereas the BIT/Zn salt remained stable even at 400° C.

[1] = tested on: Aspergillus niger NBRC6342; experiment: Test for determining minimum concentration for inhibition of growth (agar plate dilution method), Aspergillus niger; format: cell-based; settings: for MIC value (mM/L) Aspergillus niger NBRC6342: MIC on a molar basis, based on the molecular weights; for MIC value: concentration of active ingredient, potato dextrose agar, strain not given in Table 2
Excerpt: (§1) (Test for Determining Minimum Concentration for Inhibition of Growth)
(§2) For the test samples, 3 types of samples were used; i.e., the BIT/Zn salt obtained in Example 1 (in the form of a powder containing 79.7% of active ingredients), a BIT material/SC formulation (i.e., Bestcide-NS manufactured by Nippon Soda Co., Ltd. containing 33% of active ingredients), and ZnO (zinc oxide) of 99.0% or greater (manufactured by Wako Pure Chemical Industries, Ltd.). Evaluations were made by conducting an agar plate dilution method using a potato dextrose agar medium. Two fungal strains; i.e., Aspergillus niger NBRC6342 and Cladosporium cladosporioides NBRC6348, were used as microorganisms for the test, and the BIT/Zn salt, BIT and ZnO were used at a concentration of 50 to 1,000 mg/L. The results are shown in Table 2 and Table 3. It should be noted that in Table 3, the results on the analysis of minimum inhibitory concentration (MIC) based on the molecular weights (i.e., MIC values on a molar basis) are shown.

ear auricle of a mouse = experiment: Local lymph node proliferation assay using a mouse (ear auricle irritation); format: in vivo; settings: for Thickness of ear auricle: 50 μL/mouse per day on both ears, once a day for 3 days, day of measurement not given; for Extent of hyperplasia: ear auricle thickness on day 3 minus day 1, 0.1 mm or greater = irritating; for General symptoms: observation during administration period
Excerpt: (Local Lymph Node Proliferation Assay using a Mouse)
(1) Administration Solution
(A) An administration solution A prepared by suspending the BIT/Zn salt obtained in Example 1 in a mixed solvent, which was composed of N,N-dimethylacetamide, acetone and ethanol and which contained the respective component at a ratio of 4:3:3 (volume ratio) (hereafter, frequently referred to as “DAE”), so as to achieve a 5% by weight solution.
(B) An administration solution B prepared by dissolving BIT in DAE so as to achieve a 5% by weight solution.
(2) Application of an Administration Solution
12.5 μL of the administration solutions A and B were respectively applied inside and outside the ear auricle of a mouse using a micropipette. This process was carried out for both ears, once a day, and for 3 days. The applied dose was 50 μL/mouse for one day.
(3) Measurement of Body Weight
Regarding the mouse provided for the experiment, the body weight thereof was measured just before the application on day 0 of the experiment, on day 3 of the experiment, and just before the dissection thereof (on day 6).
(4) Measurement of Ear Auricle Thickness
Regarding the mouse provided for the experiment, the ear auricle thickness thereof was measured on day 1 and on day 3 of the experiment, using a digital thickness gage manufactured by Teclock Corporation.
The extent of hyperplasia was calculated by the formula: (ear auricle thickness on day 3 of the experiment)—(ear auricle thickness on day 1 of the experiment). When the extent of hyperplasia was 0.1 mm or greater, it was evaluated as “irritating”.
(5) Observation of Symptoms
During the administration period, the observations were made once just before the administration and once 3 hours after the administration. During other periods, the observations were made once a day. The presence and absence of erythema in the ear auricle was observed just before the administrations on day 1, day 2 and on day 3 of the experiment, and the observations made were evaluated in scores as 0 to 16 grades.
Method for Evaluating Mouse Eears
Grades 0-9: Evaluated as possibly not irritating to humans.
Grades 10-15: Evaluated as possibly slightly irritating to humans.
Grades greater than grade 15: Evaluated as possibly irritating to humans.

[2] = tested on: Cladosporium cladosporioides NBRC6348; experiment: Test for determining minimum concentration for inhibition of growth (agar plate dilution method), Cladosporium cladosporioides; format: cell-based; settings: MIC on a molar basis, based on the molecular weights
Excerpt: as §1, §2

[3] = tested on: Staphylococcus aureus NBRC 12732; experiment: Antibacterial test using a coated film (JIS Z 2801), Staphylococcus aureus; format: cell-based
Method: (§3) Regarding the BIT/Zn salt obtained in Example 1, an antibacterial test was carried out using a coated film.
(§4) For the samples, 2 types of samples were used; i.e., A) the BIT/Zn salt (in the form of a powder containing 79.7% of active ingredients) and B) a BIT material/SC formulation (i.e., Bestcide-NS manufactured by Nippon Soda Co., Ltd. containing 15.0% of active ingredients). For the coating material, an aqueous acrylic emulsion coating material manufactured by Nippe Home Products Co., Ltd. (a preservative-free product) was used.
(§5) (1) Preparation of Test Specimen
(§6) To a blank coating material, either A) 0.019% by weight of the BIT/Zn salt or B) 0.1% by weight of the BIT technical product/SC formulation was added, and the resultant was then stirred and mixed. The coating material to which the BIT/Zn salt was added was further subjected to an ultrasonic treatment to prepare a uniform dispersion.
(§7) Subsequently, the obtained drug-added coating materials were applied onto both sides ([…] for each side) of a sterilized filter paper having a size of 50×50 mm, and the resultant was cured at room temperature for 24 hours. Test specimens where no drug was added were also prepared in the same manner.
The test was carried out in accordance with JIS Z 2801. In other words, two strains of bacteria were used for the test; i.e., Escherichia coli NBRC 3972 (Escherichia coli) and Staphylococcus aureus NBRC 12732 (Staphylococcus aureus), and their cultures preincubated in an NA medium were diluted with a 500-fold diluted NB liquid medium to prepare bacterial suspensions for inoculation. 0.4 ml of the bacterial suspension was inoculated onto each test specimen (i.e., 50×50 mm sized filter paper with a coated film thereon), and the resultant was covered with a covering film (which was already sterilized and having a size of 45×45 mm). […] Thereafter, the sample surface and the covering film were washed using 10 ml of an SCDLP medium, and the number of bacterial cells per 1 ml of the washed out liquid was calculated by counting the number of colonies using an NA medium. […]

[4] = tested on: Escherichia coli NBRC 3972; experiment: Antibacterial test using a coated film (JIS Z 2801), Escherichia coli; format: cell-based
Method: as §3, §4, §5, §6, §7
The test was carried out in accordance with JIS Z 2801. In other words, two strains of bacteria were used for the test; i.e., Escherichia coli NBRC 3972 (Escherichia coli) and Staphylococcus aureus NBRC 12732 (Staphylococcus aureus), and their cultures preincubated in an NA medium were diluted with a 500-fold diluted NB liquid medium to prepare bacterial suspensions for inoculation. 0.4 ml of the bacterial suspension was inoculated onto each test specimen (i.e., 50×50 mm sized filter paper with a coated film thereon), and the resultant was covered with a covering film (which was already sterilized and having a size of 45×45 mm). The prepared test specimen was put in a petri dish and incubated for 24 hours in a thermo-hygrostat at a temperature of 35±1° C. and a relative humidity of 95%. Thereafter, the sample surface and the covering film were washed using 10 ml of an SCDLP medium, and the number of bacterial cells per 1 ml of the washed out liquid was calculated by counting the number of colonies using an NA medium.
A coated film obtained using a blank coating material was used as a control.
The number of bacterial cells was observed, just after the inoculation (A), and after 24 hours of incubation (B).
2) Requirements for a Valid Test
1. {(A−B)/A}×100≦90 [A: just after the inoculation, B: after 24 hours of incubation]
2. Results of the viable cell count obtained in (A) were within a range from 1.0 to 5.0×10^5 cells per petri dish.
3. Results of the viable cell count obtained in the blank (untreated) were 1.0×10^3 or more cells per petri dish. […]

[5] = coated film, 24 hours at 35±1° C., 0.019% by weight BIT/Zn salt or 0.1% by weight BIT/SC in coating material
[6] = larger values indicate stronger antibacterial activity
[7] = logarithm of viable cell count after 24 hours

Structure (SMILES): O=c1[nH]sc2ccccc12 [BIT, 1,2-benzoisothiazolin-3-one]
- Thermal stability (temperature of breakdown) (Thermal stability test): ≤ 300 °C
- MIC value (mM/L) Aspergillus niger NBRC6342 [1]: 1.3 mM/L
- MIC value [1]: 200 mg/L (≈ 1320 µM)
- Thickness of ear auricle (ear auricle of a mouse; 5% by weight in DAE): 0.39 mm
- Extent of hyperplasia (ear auricle of a mouse; 5% by weight in DAE): 0.1 mm and 0.10 mm
- General symptoms (ear auricle of a mouse; 5% by weight in DAE): no abnormality was observed
- Grade for erythema (ear auricle of a mouse; 5% by weight in DAE, score 0 to 16, 0-9 possibly not irritating, 10-15 slightly irritating, >15 irritating to humans): 16
- Evaluation of irritation (ear auricle of a mouse; criterion: extent of hyperplasia 0.1 mm or greater): irritating
- MIC value (mM/L) Cladosporium cladosporioides NBRC6348 [2]: <0.3 mM/L

Structure (SMILES): O=c1[n-]sc2ccccc12.O=c1[n-]sc2ccccc12.[Zn+2] [BIT/Zn salt, zinc salt of BIT]
- Thermal stability (temperature of breakdown) (Thermal stability test): > 400 °C
- MIC value (mM/L) Aspergillus niger NBRC6342 [1]: 2.0 mM/L
- MIC value [1]: 750 mg/L
- Activity level ([1]; statement covers both fungal strains): satisfactory to be put into practice
- Number of viable cells, Staphylococcus aureus [3, 5]: <10 Number of cells per petri dish
- Antibacterial activity, Staphylococcus aureus [3, 6]: 3.6
- Logarithmic value, Staphylococcus aureus [3, 7]: 1.0
- Thickness of ear auricle (ear auricle of a mouse; 5% by weight in DAE): 0.34 mm
- Extent of hyperplasia (ear auricle of a mouse; 5% by weight in DAE): 0.04 mm
- General symptoms (ear auricle of a mouse; 5% by weight in DAE): attachment of white powder on the ear auricle was observed 3 hours after the administration
- MIC value (mM/L) Cladosporium cladosporioides NBRC6348 [2]: <0.1 mM/L
- Number of viable cells, Escherichia coli [4, 5]: <10 Number of cells per petri dish
- Antibacterial activity, Escherichia coli [4, 6]: 4.9
- Logarithmic value, Escherichia coli [4, 7]: 1.0
- Antibacterial activity compared with BIT ([4]; statement covers both bacterial strains of Table 4): same level of antibacterial activity as that of BIT

Structure (SMILES): [O]=[Zn] [ZnO, zinc oxide]
- MIC value (mM/L) Aspergillus niger NBRC6342 [1]: >12.3 mM/L
- MIC value [1]: >1,000 mg/L
- MIC value (mM/L) Cladosporium cladosporioides NBRC6348 [2]: 6.10 mM/L
